Active and inactive are the calls of the source. The rule behind the calls is not given here.
Target: Small ubiquitin-related modifier 2 (Homo sapiens) (UniProt P61956)
Experiment: inhibitors of SUMO2 protein-protein interaction, dose response, selectivity assay for SUMO1 interaction inhibitor project, biochemical, FRET, human SUMO2, uHTS hits (AID 624384)

Chain of Small ubiquitin-related modifier 2 (Homo sapiens) (P61956 whole entry, looked up): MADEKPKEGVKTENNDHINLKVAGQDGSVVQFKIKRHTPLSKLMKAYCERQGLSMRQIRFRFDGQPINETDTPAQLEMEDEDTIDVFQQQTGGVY

C[c-]1[c-](C)[c-](C)[c-](C)[c-]1C.[Fe].c1cc2nccc(N3CCCC3)[c-]2c1 (stereo unspecified)
IC50: > 66 µM (inactive)

Source: PubChem BioAssay AID624384 (Sanford-Burnham Center for Chemical Genomics, 2012)
